{"source": "patent US20230285357A1", "about": "“COMPOSITIONS AND METHODS FOR […] CELLS” (The Regents of the University of California, priority 2020, published 2023)", "key": {"[1]": {"test_system": "vascular repair", "experiment": "Hindlimb ischemia model in nude mice after cell transplantation", "assay_type": "in vivo, mouse", "protocol": "(§1) Then, same cells in a model of hindlimb ischemia in nude mice to evaluate the capacity of eGFP positive cells in vascular repair were tested. After ligation of the proximal and distal femoral artery, eGFP positive cells were transplanted (FIG. 2, Part F). Human aortic endothelial cells (HAECs) and osteoblasts were used as controls.\n(§2) Tube formation assays in vitro was then tested. […] Cells into hindlimb ischemia mouse model were transplanted.\nLaser Doppler perfusion imaging was performed using real-time microcirculation imaging system (Perimed). The imaging was conducted under normal ambient room lighting. 20×27 mm high resolution model was used with 1388×1038 pixels measurement camera and 752×580 pixels documentation camera as one image per second. The image resolution was set up as 20 μm/pixel and 21 images per frame until stopped. Windows based PIMSoft software (Perimed) was used to process the data.\nThe murine model of hindlimb ischemia was performed as previously described. A 10 mm long incision of the skin was made towards the medial thigh. The femoral artery was exposed and separated from femoral vein and nerve. Silk sutures were used to tie the proximal and the distal end of femoral artery with double knots. The cells (5×10^5) were transplanted into the surgical area and the incision was closed. Laser Doppler perfusion imaging was used to monitor the blood flow at different time points. Histology and immunostaining were used to examine the vascularization 2 weeks after transplantation."}, "[2]": {"test_system": "SMAD1 and β-catenin", "experiment": "Immunoblotting of SMAD1, phosphorylated SMAD1 and β-catenin in treated osteoblasts", "assay_type": "cell-based, mouse", "details": "different doses", "excerpt": "The expression of transcription factors that are known to be involved in bone formation or vascular development were screened. […] To determine if excess β-catenin affected SMAD1 expression, β-catenin in SB216763-treated osteoblasts was depleted by using siRNA. […] DNA-binding sites of β-catenin by locating the binding motifs in Smad1 gene was explored, and identified four individual sites located at −196 bp, −1454 bp, −2805 bp and −4729 bp upstream of exon1 of Smad1 gene (FIG. 3, Part D). […] Then, transcriptional status of Smad1 was determined by examining the histone modification, including trimethylated histone H3 lysine 4 (H3K4me3) associated with active transcription and H3K27me3 a closed chromatin mark.\nImmunoblotting was performed as previously described. Equal amounts of tissue lysates were used for immunoblotting. Blots were incubated with specific antibodies to SMAD1, GSK3α and GSK3β (all from Cell Signaling Technology, 9743, 433T and 93115), β-catenin and cbfa1 (all from R&D system, AF1329 and MAB2006), osterix (Santa Cruz Biotechnology, sc-22536), Flk1 and VE-cadherin (all from BD Bioscience, 55307 and 562242), vWF (Dako, A0082). 3-Actin (Sigma-Aldrich, A2228) was used as a loading control. Immunofluorescence was performed as previously described in detail. […]"}, "[3]": {"test_system": "vascular calcification in Mgp−/− mice", "experiment": "Late vascular calcification in Mgp−/− mice", "assay_type": "in vivo, mouse", "protocol": "It was next examined if SB216763 reversed osteogenesis in vascular calcification by treating Mgp^−/− mice at 4 weeks of age for 2 weeks (FIG. 5, Part F).\nMgp^+/− (B6.129S7-Mgptm1Kry/KbosJ), Col1α1^CreERT2 (B6.Cg-Tg(Col1α1-cre/ERT2)1Crm/J), GSK3β^flox/flox (B6.129(Cg)-Gsk3btm2Jrw/J) and Osx-Gfptg (B6.Cg-Tg(Sp7-tTA,tetO-EGFP/cre)1Amc/J) mice on C57BL/6J background were purchased from the Jackson Laboratory. Genotypes were confirmed by PCR, and experiments were performed with generation F4-F6. Littermates were used as wild type controls. All mice were fed a standard chow diet. The studies were reviewed and approved by the Institutional Review Board and conducted in accordance with the animal care guidelines set by the University of California, Los Angeles (UCLA). The investigation conformed to the National Research Council, Guide for the Care and Use of Laboratory Animals, Eighth Edition (Washington, D.C.: The National Academies Press, 2011).\nMicroCT imaging was performed at the Crump Imaging Center at UCLA. All the samples were scanned on a high-resolution, volumetric microCT scanner (CT125). The image data were acquired with the following parameters: 10 μm isotropic voxel resolution; 200 ms exposure time; 2,000 views and 5 frames per view. The microCT-generated DICOM files were used to analyze the samples and to create volume renderings of the regions of interest. The raw data files were viewed using the MicroView 3-D volume viewer and analysis tool (GE Healthcare) and AltaViewer™ Software. Additionally, images of the samples were generated using SCIRun (Scientific Computing and Imaging Institute)."}, "[4]": {"test_system": "eGFP positive cells from SB216763-treated Flk1-eGFP osteoblasts", "experiment": "Tube formation assay in vitro", "assay_type": "cell-based, mouse", "protocol": "as §1, §2"}, "[5]": {"test_system": "osteoblasts", "experiment": "RNA sequencing of SB216763-treated osteoblasts", "assay_type": "cell-based, mouse", "excerpt": "The differential expression profiles of SB216763-treated osteoblasts using RNA sequencing was examined. […] These overlapped with 1357 genes identified as low expression when osteoblast vs EC was compared, and a 307-gene cohort with decreased expression in both analyses was identified (FIG. 1, Part G). Gene Ontology (GO) termed these genes enriched for the signal pathway of osteoblastic differentiation and bone development (FIG. 1, Part G). Similarly, 519 genes with increased expression after SB21673 treatment were found (FIG. 1, Part H).\nFor RNA sequencing, osteoblasts were treated with 10 μM SB216763 for 14 days, and RNA was isolated for library preparation. The sequencing was conducted by the Pathology Research Services at UCLA. Spliced Transcripts Alignment to Reference (STAR) was used for the read alignment. Cufflinks was used to assemble transcripts, estimate their abundances, and assess the differential expression. GO analysis and pathway enrichment of the identified genes were performed."}, "[6]": {"details": "Mgp−/− mice at 4 weeks of age treated for 2 weeks"}, "[7]": {"details": "4-fold differential threshold level"}}, "data": [{"smiles": "Cn1cc(C2=C(c3ccc(Cl)cc3Cl)C(=O)NC2=O)c2ccccc21", "note": "[SB216763]", "values": [{"measurement": "blood flow, Laser Doppler perfusion imaging", "setting": "[1]; SB216763-treated cells with restoring SMAD1 vs controls", "value": "No difference was observed"}, {"measurement": "blood flow, Laser Doppler perfusion imaging", "setting": "[1]; SB216763-treated osteoblasts with depletion of β-catenin vs cells without depletion", "value": "less blood flow"}, {"measurement": "vascular density, histology and immunostaining", "setting": "[1]; transplanted eGFP positive cells", "value": "increase in vascular density"}, {"measurement": "limb blood flow, Laser Doppler perfusion imaging", "setting": "[1]; transplanted eGFP positive cells compared to osteoblasts", "value": "significantly higher limb blood flow"}, {"measurement": "expression and phosphorylation of SMAD1", "setting": "[2]", "value": "dose-dependent decrease"}, {"measurement": "β-catenin protein level", "setting": "[2]", "value": "robust increase"}, {"measurement": "CD31-positive cells co-expressing VE-cadherin and osterix, FACS", "setting": "[3]; [6]", "value": "decrease of CD31-positive cells that co-expressed VE-cadherin and osterix"}, {"measurement": "CD31-positive cells expressing VE-cadherin only, FACS", "setting": "[3]; [6]", "value": "increase of CD31-positive cells that expressed VE-cadherin only"}, {"measurement": "aortic calcification, microCT imaging", "setting": "[3]; [6]", "value": "reduction of aortic calcification"}, {"measurement": "histology of calcified areas of the aortas", "setting": "[3]; [6]", "value": "change in morphology in calcified areas of the aortas"}, {"measurement": "mineralization of whole aortic tissues, alizarin red staining", "setting": "[3]; [6]", "value": "reduction of mineralization"}, {"measurement": "total aortic calcium and mineral deposition", "setting": "[3]; [6]", "value": "decrease of total aortic calcium and mineral deposition"}, {"measurement": "osteogenic markers in aortic tissue, real-time PCR", "setting": "[3]; treated Mgp−/− mice compared to non-treated mice", "value": "decrease of osteogenic markers"}, {"measurement": "tube formation", "setting": "[4]; SB216763-treated cells with β-catenin depletion", "value": "decrease of tube formation"}, {"measurement": "tube formation", "setting": "[4]; eGFP positive cells from treated osteoblasts", "value": "robust tube formation"}, {"measurement": "transcript profile", "setting": "[5]; 10 μM for 14 days", "value": "increased the similarities between the treated osteoblasts and ECs"}, {"measurement": "cohort with decreased expression in both analyses (overlap with osteoblast vs EC low expression genes)", "setting": "[5]; [7]", "value": 307, "unit": "gene"}, {"measurement": "cohort with increased expression in both analyses (overlap with EC vs osteoblast high expression genes)", "setting": "[5]; [7]", "value": 235, "unit": "genes"}, {"measurement": "genes decreased in expression", "setting": "[5]; [7]", "value": 827, "unit": "genes"}, {"measurement": "genes with increased expression", "setting": "[5]; [7]", "value": 519, "unit": "genes"}]}]}
